# Data from PubChem BioAssay AID2060912 (Molecular Pharmacology Branch, DTP, NCI, 2025).
# System: HUVEC/MSC spheroids viability
# Assay: Human HUVEC/MSC cell line growth inhibition [KRAS2];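 for viability, T/C: percent of DMSO vehicle control luminescence so 100% = untreated viability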
# Details: for IC50: curve of first compound; for viability, T/C: stronger effect = lower value
# Procedure, shortened: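 Concentration ranges start near each agent's clinical Cmax, or at 10 microM if none is established, and fall by half-log increments. These ranges are tested as single agents and combinations on endothelial/mesenchymal stem cell spheroids lacking tumour cells.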
# [1] = second compound 0.0316 µM, first compound 0.0316 µM
# [2] = second compound 0.0316 µM, first compound 0.1 µM
# [3] = second compound 0.1 µM, first compound 0.0316 µM
# [4] = second compound 0.1 µM, first compound 0.1 µM
# [5] = second compound 0.316 µM, first compound 0.0316 µM
# [6] = second compound 0.316 µM, first compound 0.1 µM
# [7] = second compound 1 µM, first compound 0.0316 µM
# [8] = second compound 1 µM, first compound 0.1 µM
# [9] = second compound 3.16 µM, first compound 0.0316 µM
# [10] = second compound 3.16 µM, first compound 0.1 µM
# [11] = second compound 10 µM, first compound 0.0316 µM
# [12] = second compound 10 µM, first compound 0.1 µM
# [13] = second compound 0.0316 µM, first compound 0.316 µM
# [14] = second compound 0.0316 µM, first compound 1 µM
# [15] = second compound 0.0316 µM, first compound 3.16 µM
# [16] = second compound 0.0316 µM, first compound 10 µM
# [17] = second compound 0.1 µM, first compound 0.316 µM
# [18] = second compound 0.1 µM, first compound 1 µM
# [19] = second compound 0.1 µM, first compound 3.16 µM
# [20] = second compound 0.1 µM, first compound 10 µM
# [21] = second compound 0.316 µM, first compound 0.316 µM
# [22] = second compound 0.316 µM, first compound 1 µM
# [23] = second compound 0.316 µM, first compound 3.16 µM
# [24] = second compound 0.316 µM, first compound 10 µM
# [25] = second compound 1 µM, first compound 0.316 µM
# [26] = second compound 1 µM, first compound 1 µM
# [27] = second compound 1 µM, first compound 3.16 µM
# [28] = second compound 1 µM, first compound 10 µM
# [29] = second compound 3.16 µM, first compound 0.316 µM
# [30] = second compound 3.16 µM, first compound 1 µM
# [31] = second compound 3.16 µM, first compound 3.16 µM
# [32] = second compound 3.16 µM, first compound 10 µM
# [33] = second compound 10 µM, first compound 0.316 µM
# [34] = second compound 10 µM, first compound 1 µM
# [35] = second compound 10 µM, first compound 3.16 µM
# [36] = second compound 10 µM, first compound 10 µM
structure (smiles),measurement,setting,value
CN(C)C/C=C/C(=O)Nc1cc2c(Nc3ccc(F)c(Cl)c3)ncnc2cc1O[C@H]1CCOC1 + CNCc1ccccc1-c1csc(C(C)Nc2nc(C)nc3cc(OC)c(OC)cc23)c1,IC50,second compound 0.0316 µM,> 100 nM
same,IC50,second compound 0.1 µM,> 100 nM
same,IC50,second compound 0.316 µM,> 100 nM
same,IC50,second compound 1 µM,> 100 nM
same,IC50,second compound 3.16 µM,> 100 nM
same,IC50,second compound 10 µM,< 0.316 nM
same,"viability, T/C","second compound 0.0316 µM, first compound 0.000316 µM",100%
same,"viability, T/C","second compound 0.0316 µM, first compound 0.001 µM",89.5%
same,"viability, T/C","second compound 0.0316 µM, first compound 0.00316 µM",90.5%
same,"viability, T/C","second compound 0.0316 µM, first compound 0.01 µM",91.2%
same,"viability, T/C",[1],74%
same,"viability, T/C",[2],86%
same,"viability, T/C","second compound 0.1 µM, first compound 0.000316 µM",89.7%
same,"viability, T/C","second compound 0.1 µM, first compound 0.001 µM",105%
same,"viability, T/C","second compound 0.1 µM, first compound 0.00316 µM",77.4%
same,"viability, T/C","second compound 0.1 µM, first compound 0.01 µM",76.7%
same,"viability, T/C",[3],89.5%
same,"viability, T/C",[4],74.8%
same,"viability, T/C","second compound 0.316 µM, first compound 0.000316 µM",85.2%
same,"viability, T/C","second compound 0.316 µM, first compound 0.001 µM",93.2%
same,"viability, T/C","second compound 0.316 µM, first compound 0.00316 µM",72.5%
same,"viability, T/C","second compound 0.316 µM, first compound 0.01 µM",78.1%
same,"viability, T/C",[5],96.6%
same,"viability, T/C",[6],68.8%
same,"viability, T/C","second compound 1 µM, first compound 0.000316 µM",78.3%
same,"viability, T/C","second compound 1 µM, first compound 0.001 µM",73.7%
same,"viability, T/C","second compound 1 µM, first compound 0.00316 µM",86.5%
same,"viability, T/C","second compound 1 µM, first compound 0.01 µM",73.5%
same,"viability, T/C",[7],72.7%
same,"viability, T/C",[8],59.8%
same,"viability, T/C","second compound 3.16 µM, first compound 0.000316 µM",89.2%
same,"viability, T/C","second compound 3.16 µM, first compound 0.001 µM",94.4%
same,"viability, T/C","second compound 3.16 µM, first compound 0.00316 µM",80.4%
same,"viability, T/C","second compound 3.16 µM, first compound 0.01 µM",89.5%
same,"viability, T/C",[9],65.2%
same,"viability, T/C",[10],84.4%
same,"viability, T/C","second compound 10 µM, first compound 0.000316 µM",0.33%
same,"viability, T/C","second compound 10 µM, first compound 0.001 µM",0.35%
same,"viability, T/C","second compound 10 µM, first compound 0.00316 µM",0.37%
same,"viability, T/C","second compound 10 µM, first compound 0.01 µM",0.33%
same,"viability, T/C",[11],0.37%
same,"viability, T/C",[12],0.65%
COC(=O)c1ccc2c(C(=Nc3ccc(N(C)C(=O)CN4CCN(C)CC4)cc3)c3ccccc3)c(O)[nH]c2c1 + CNCc1ccccc1-c1csc(C(C)Nc2nc(C)nc3cc(OC)c(OC)cc23)c1,IC50,second compound 0.0316 µM,1550 nM
same,IC50,second compound 0.1 µM,1470 nM
same,IC50,second compound 0.316 µM,1420 nM
same,IC50,second compound 1 µM,1190 nM
same,IC50,second compound 3.16 µM,988 nM
same,IC50,second compound 10 µM,< 31.6 nM
same,"viability, T/C",[1],77%
same,"viability, T/C",[2],117%
same,"viability, T/C",[13],76.5%
same,"viability, T/C",[14],53.4%
same,"viability, T/C",[15],37.9%
same,"viability, T/C",[16],0.32%
same,"viability, T/C",[3],76.7%
same,"viability, T/C",[4],103%
same,"viability, T/C",[17],87.3%
same,"viability, T/C",[18],48.4%
same,"viability, T/C",[19],36.9%
same,"viability, T/C",[20],0.41%
same,"viability, T/C",[5],74.6%
same,"viability, T/C",[6],125%
same,"viability, T/C",[21],90.9%
same,"viability, T/C",[22],53.1%
same,"viability, T/C",[23],31.9%
same,"viability, T/C",[24],0.39%
same,"viability, T/C",[7],72.9%
same,"viability, T/C",[8],85.9%
same,"viability, T/C",[25],72.3%
same,"viability, T/C",[26],57.5%
same,"viability, T/C",[27],10.4%
same,"viability, T/C",[28],0.24%
same,"viability, T/C",[9],103%
same,"viability, T/C",[10],95.8%
same,"viability, T/C",[29],84%
same,"viability, T/C",[30],53.1%
same,"viability, T/C",[31],0.34%
same,"viability, T/C",[32],0.27%
same,"viability, T/C",[11],0.37%
same,"viability, T/C",[12],0.4%
same,"viability, T/C",[33],0.49%
same,"viability, T/C",[34],0.51%
same,"viability, T/C",[35],0.34%
same,"viability, T/C",[36],0.2%
O=C(c1cc(Cc2n[nH]c(=O)c3ccccc23)ccc1F)N1CCN(C(=O)C2CC2)CC1 + CNCc1ccccc1-c1csc(C(C)Nc2nc(C)nc3cc(OC)c(OC)cc23)c1,IC50,second compound 0.0316 µM,> 10000 nM
same,IC50,second compound 0.1 µM,> 10000 nM
same,IC50,second compound 0.316 µM,> 10000 nM
same,IC50,second compound 1 µM,> 10000 nM
same,IC50,second compound 3.16 µM,> 10000 nM
same,IC50,second compound 10 µM,< 31.6 nM
same,"viability, T/C",[1],95.6%
same,"viability, T/C",[2],92.6%
same,"viability, T/C",[13],93.1%
same,"viability, T/C",[14],84.2%
same,"viability, T/C",[15],80.3%
same,"viability, T/C",[16],72%
same,"viability, T/C",[3],87.1%
same,"viability, T/C",[4],91.4%
same,"viability, T/C",[17],92.1%
same,"viability, T/C",[18],78.2%
same,"viability, T/C",[19],81.9%
same,"viability, T/C",[20],96%
same,"viability, T/C",[5],84.6%
same,"viability, T/C",[6],92.2%
same,"viability, T/C",[21],76.7%
same,"viability, T/C",[22],92.3%
same,"viability, T/C",[23],89.8%
same,"viability, T/C",[24],93.9%
same,"viability, T/C",[7],70%
same,"viability, T/C",[8],84.7%
same,"viability, T/C",[25],85.5%
same,"viability, T/C",[26],81.1%
same,"viability, T/C",[27],78%
same,"viability, T/C",[28],104%
same,"viability, T/C",[9],95.7%
same,"viability, T/C",[10],87.8%
same,"viability, T/C",[29],98.2%
same,"viability, T/C",[30],105%
same,"viability, T/C",[31],92.3%
same,"viability, T/C",[32],95.8%
same,"viability, T/C",[11],0.39%
same,"viability, T/C",[12],0.43%
same,"viability, T/C",[33],0.37%
same,"viability, T/C",[34],0.34%
same,"viability, T/C",[35],0.39%
same,"viability, T/C",[36],0.41%
